Laboratory results as given in patent publication US20260347387A1, “Lipid-Gold Salt Molecules and Formulation in Lipid Nanoparticle Delivery Systems” (NORTHWESTERN UNIVERSITY, priority 2023, published 2026).

System: TOV-21G ovarian cancer cells
Assay: Cell viability assay, TOV-21G clear cell ovarian cancer cells
Assay type: cell-based
Details: Table C, FIGS. 24, 25
Experimental: In vitro cellular viability assay. ES-2 (2,500 cells/well), 786-0 ccRCCa (400 cells/well), Ramos (16,000 cells/well), SUDHL4 (16,000 cells/well), Jurkat (16,000 cells/well), CWR-R1 (1,000 cells/well), LNCaP (2,000 cells/well), and 22rv1 (2,000 cells/well) were plated into 96 well plates. Adherent ES-2, CWR-R1, LNCaP, 22rv1, and 786-0 cells were incubated for 24 h. Media in the wells was then replaced with pre-prepared media containing the appropriate drug formulations at the appropriate drug concentration. Ramos, SUDHL4, and Jurkat cells are suspension cell lines and were plated and treated on the same day. After 72 h, cell viability was measured via an MTS cell-proliferation assay (CellTiter 96 Aqueous One, Promega; Madison, WI) and the relative cell-survival percentages compared to the vehicle control were plotted against the concentration of either the AuNP or the oc-HDL NPs in logarithmic scale. The data reported represent an average of three measurements.
Addition of gold salts to HDL-NPs disclosed herein decreased cell viability more than the addition of gold salts to oc-HDL NPs disclosed herein in a clear cell ovarian cancer model (TOV-21Gcell line). Cells were treated with gold-bearing HDL-NPs or gold salts as disclosed herein in an assay described in the Materials and protocols for in vitro studies section above.

In the case of `CCP(CC)CC.[Au+].[Cl-]` [Et3PAuCl, Chloro(triethylphosphine)gold(I)], the IC50 is reported as 9.74 nM.
